The target in assay [1] is T1, human CRTH2 (Homo sapiens, UniProt Q9Y5Y4, V204A).
T1 sequence (Q9Y5Y4 1-395 V204A): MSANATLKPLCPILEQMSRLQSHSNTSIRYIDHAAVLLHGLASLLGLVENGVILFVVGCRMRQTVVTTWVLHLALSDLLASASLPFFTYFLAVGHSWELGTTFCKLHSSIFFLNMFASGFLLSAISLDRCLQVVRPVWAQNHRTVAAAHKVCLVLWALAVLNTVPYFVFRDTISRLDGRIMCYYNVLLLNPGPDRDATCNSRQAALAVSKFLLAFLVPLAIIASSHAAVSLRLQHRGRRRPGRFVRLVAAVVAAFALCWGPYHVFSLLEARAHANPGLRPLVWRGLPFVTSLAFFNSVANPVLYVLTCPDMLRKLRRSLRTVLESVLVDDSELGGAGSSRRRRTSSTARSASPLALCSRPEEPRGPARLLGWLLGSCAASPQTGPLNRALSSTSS
In words: Functional antagonist BRET assay on HEK293 cells stably expressing human CRTH2-Rluc and GFP2-β-arr2. In kind it is cell-based. Details: expressed in transfected cells. The settings on record: read-out: Antag. IC50. The source says:
(§1) Generation/origin of the cDNA Constructs. The coding sequence of the human CRTH2 receptor (genbank accession no NM_004778) was amplified by PCR from a human hippocampus cDNA library and inserted into the pcDNA3.1(+) expression vector (invitrogen) via 5′ HindIII and 3′ EcoRI. To generate a CRTH2-Renilla luciferase (CRTH2-Rluc) fusion protein, the CRTH2 coding sequence without a STOP codon and Rluc were amplified, fused in frame by PCR and subcloned into the pcDNA3.1(+)Zeo expression vector (invitrogen). Human β-arrestin2 (β-arr2) N-terminally tagged with GFP^2 (βarr2-GFP^2) and Renilla luciferase were purchased from BioSignal Packard Inc, (Montreal, Canada). The sequence identity of the construct was verified by restriction endonuclease digests and sequencing in both directions on an ABI Prism (Applied Biosystems, Foster City, Calif.).
(§2) Cell Culture and Transfection. COS-7 cells were grown in Dulbecco's modified Eagle's medium (DMEM) 1885 supplemented with 10% fetal bovine serum, 100 units/ml penicillin, […] streptomycin, and kept at 37° C. in a 10% CO2 atmosphere. HEK293 cells were maintained in Minimum Essential medium (MEM) supplemented with 10% (v/v) heat inactivated fetal calf serum (HIFCS), 2 mM Glutamax™-I, 1% non essential amino acids (NEAA), 1% sodium pyruvate and 10 μg/ml gentamicin. For binding experiments, COS7 cells were transiently transfected with the CRTH2 receptor using a calcium phosphate-DNA coprecipitation method with the addition of chloroquine (as described by Holst et al., 2001↓). To perform the functional Bioluminescence Resonance Energy Transfer (BRET) assays, a HEK293 cell clone stably expressing βarr2-GFP^2 and CRTH2-Rluc was generated (CRTH2-HEK293 cells).
BRET assay. Functional BRET assays were performed on HEK293 cells stably expressing human CRTH2-Rluc and GFP^2-β-arr2. Prior to their use in the BRET assay cells were detached and re-suspended in D-PBS with 1000 mg/L L-Glucose at a density of 2×10^6 cells/mL. DeepBlueC™ was diluted to 50 μM in D-PBS with 1000 mg/L L-Glucose (light sensitive). 100 μL of cell suspension was transferred to wells in a 96-well microplate (white OptiPlate) and placed in the Mithras LB 940 instrument (BERTHOLD TECHNOLOGIES, Bad Wildbad, Germany). 12 μL/well agonist was then injected by injector 1 and 10 μL/well DeepBlueC™ was injected simultaneously by injector 2. Five seconds after the injections the light output from the well was measured sequentially at 400 nm and 515 nm, and the BRET signal (mBRET ratio) was calculated by the ratio of the fluorescence emitted by GFP^2-β-arr2 (515 nm) over the light emitted by the receptor-Rluc (400 nm). Antagonists were added before placing the microplates into the Mithras LB 940 and allowed to incubate for 15 minutes prior to the addition of agonist and DeepBlueC™. Compounds were dissolved in DMSO and the final DMSO concentration was kept constant at 1% in the assay.
(§3) Curve analysis was performed with the GraphPadPrism software 3.0 (Graphpad Prism Inc., San Diego, USA) and IC50 values were calculated as a measure of the antagonistic potencies.
Background: In BRET a luciferase serves as donor, and the signal depends on an acceptor being close.

Assay [2] addresses T1, human CRTH2. Briefly: Receptor binding assay: [3H]PGD2 competition binding on whole COS-7 cells transiently transfected with CRTH2 (also stable HEK293 cells). Details: expressed in transfected cells; host or cells: COS-7 (transient, calcium phosphate).
Excerpt: as §1, §2
Binding assay. 24 h after transfection COS-7 cells were seeded into 96 well plates at a density of 30.000 cells/well. Competition binding experiments on whole cells were then performed about 18-24 h later using 0.1 nM [^3H]PGD2 (NEN, 172 Ci/mmol) in a binding buffer consisting of HBSS (GIBCO) and 10 mM HEPES. Competing ligands were diluted in DMSO which was kept constant at 1% (v/v) of the final incubation volume. Total and nonspecific binding were determined in the absence and presence of 10 μM PGD2. Binding reactions were routinely conducted for 3 h at 4° C. and terminated by 2 washes (100 μl each) with ice cold binding buffer. Radioactivity was determined by liquid scintillation counting in a TOPCOUNTER (Packard) following over night incubation in Microscint 20. Stable HEK293 cells were seeded at a density of 30.000 cells/well 18-24 h prior to the binding assay which was performed essentially as described for COS7 cells above. Determinations were made in duplicates.
as §3

Setting [3] is: functional antagonist assay, Table 3.
[4] abbreviates: receptor binding assay, Table 3.
The mark [5] stands for this setting: BRET, antagonist incubated 15 minutes prior to agonist.
[6] abbreviates: competition with 0.1 nM [3H]PGD2, whole cells, 3 h at 4° C.

Some results are limits rather than exact numbers.

For `O=C(O)COc1ccc(Br)cc1-c1nc(Cc2ccccc2Cl)no1` [D120, {4-Bromo-2-[3-(2-chloro-benzyl)-[1,2,4]oxadiazol-5-yl]-phenoxy}-acetic acid], the IC50 in assay [1] (setting [3]) and in assay [2] (setting [4]) was under 500 nM in each case.
Consider `O=C(O)COc1ccc(Br)cc1-c1csc(Cc2ccc(Cl)cc2)n1` [D94, {4-Bromo-2-[2-(4-chlorobenzyl)thiazol-4-yl]phenoxy}acetic acid], for which the 50% inhibitory concentration (IC50) in assay [1] (setting [5]) and in assay [2] (setting [6]) was under 500 nM in each case.
As for `O=C(O)COc1ccc(Br)cc1CC1SC(=O)N(Cc2cccc(Cl)c2)C1=O` (centres unmarked) [D144, 4-Bromo-2-[3-(3-chlorobenzyl)-2,4-dioxothiazolidin-5-ylmethyl]phenoxyacetic acid], the half-maximal inhibitory concentration (IC50) in assay [1] (setting [5]) and in assay [2] (setting [6]) was under 500 nM throughout.
On to `Cc1cccc(Cl)c1-n1cc(C(=O)c2cc(Br)ccc2OCC(=O)O)cn1` [D76, {4-Bromo-2-[1-(2-chloro-6-methylphenyl)-1H-pyrazole-4-carbonyl]phenoxy}acetic acid], for which the IC50 in assay [1] (setting [5]) and in assay [2] (setting [6]) was under 500 nM each time.
Take `O=C(O)COc1ccc(Br)cc1-c1csc(-c2ccccc2)n1` [D93, [4-Bromo-2-(2-phenylthiazol-4-yl)phenoxy]acetic acid]: the concentration for half-maximal inhibition (IC50) in assay [1] (setting [5]) and in assay [2] (setting [6]) was under 500 nM throughout.
With `O=C(O)COc1ccc(Br)cc1C(=O)c1cnn(-c2ccc(Br)cc2Br)c1` [D33, 4-Bromo-2-[1-(2,4-dibromophenyl)-1H-pyrazole-4-carbonyl]phenoxyacetic acid], the half-maximal inhibitory concentration (IC50) in assay [1] (setting [5]) and in assay [2] (setting [6]) was under 500 nM throughout.
With `CCc1ccc(OCC(=O)O)c(C(=O)c2cnn(-c3c(Cl)cccc3Cl)c2)c1` [D53, {2-[1-(2,6-Dichlorophenyl)-1H-pyrazole-4-carbonyl]-4-ethylphenoxy}acetic acid], the half-maximal inhibitory concentration (IC50) in assay [1] (setting [5]) and in assay [2] (setting [6]) was under 500 nM each time.
Consider `O=C(O)COc1ccc(Br)cc1-c1coc(-c2ccc(Cl)cc2)n1` [D85, {4-Bromo-2-[2-(4-chlorophenyl)oxazol-4-yl]phenoxy}acetic acid], for which the IC50 is over 5000 nM in assay [1] (setting [5]) and under 500 nM in assay [2] (setting [6]).
With `O=C(O)COc1ccc(Br)cc1-c1nc(-c2ccccc2Cl)no1` [D108, {4-Bromo-2-[3-(2-chlorophenyl)-[1,2,4]oxadiazol-5-yl]phenoxy}acetic acid], the concentration for half-maximal inhibition (IC50) in assay [1] (setting [3]) and in assay [2] (setting [4]) was under 500 nM in each case.
For `O=C(O)COc1ccc(Br)cc1C(=O)c1cnn(-c2ccccc2OC(F)(F)F)c1` [D52, {4-Bromo-2-[1-(2-trifluoromethoxyphenyl)-1H-pyrazole-4-carbonyl]phenoxy}acetic acid], the IC50 in assay [1] (setting [5]) and in assay [2] (setting [6]) was under 500 nM in each case.
`O=C(O)COc1ccc([N+](=O)[O-])cc1C(=O)c1cnn(-c2ccccc2Br)c1` [D28, 4-Nitro-2-[1-(2-bromophenyl)-1H-pyrazole-4-carbonyl]phenoxyacetic acid]: the IC50 in assay [1] (setting [5]) and in assay [2] (setting [6]) was under 500 nM each time.
Turning to `CCOc1ccc(OCC(=O)O)c(C(=O)c2cnn(-c3ccccc3)c2)c1` [D74, [4-Ethoxy-2-(1-phenyl-1H-pyrazole-4-carbonyl)phenoxy]acetic acid], the IC50 in assay [1] (setting [5]) is over 5000 nM; in assay [2] (setting [6]) it was 500 to 5000 nM.
Consider `COc1cc(Cc2noc(-c3cc(Br)ccc3OCC(=O)O)n2)cc(OC)c1` [D128, {4-Bromo-2-[3-(3,5-dimethoxybenzyl)-[1,2,4]oxadiazol-5-yl]phenoxy}acetic acid], for which the figures for the IC50 in assay [1] (setting [3]) and in assay [2] (setting [4]) were 500 to 5000 nM and under 500 nM, respectively.
`O=C(O)COc1ccc(Br)cc1CC1SC(=O)N(Cc2ccncc2)C1=O` (centres unmarked) [D145, 4-Bromo-2-(2,4-dioxo-3-pyridin-4-ylmethylthiazolidin-5-ylmethyl)phenoxyacetic acid]: the IC50 in assay [1] (setting [5]) and in assay [2] (setting [6]) was under 500 nM each time.
For `COc1cccc(-c2nc(-c3cc(Br)ccc3OCC(=O)O)co2)c1` [D86, {4-Bromo-2-[2-(3-methoxyphenyl)oxazol-4-yl]phenoxy}acetic acid], the IC50 in assay [1] (setting [5]) and in assay [2] (setting [6]) was under 500 nM in each case.
Turning to `O=C(O)COc1ccc(Br)cc1-c1nc(-c2ccccc2)no1` [D99, [4-Bromo-2-(3-phenyl-[1,2,4]oxadiazol-5-yl)phenoxy]acetic acid], the IC50 in assay [1] (setting [3]) and in assay [2] (setting [4]) was under 500 nM in each case.
`O=C(O)COc1ccccc1C=NNC(=O)CSc1nnc(-c2ccc(Cl)cc2)n1-c1ccccc1` [D156]: the IC50 in assay [1] (setting [5]) is 500 to 5000 nM; in assay [2] (setting [6]), under 500 nM.
For `CC(Oc1ccc(Br)cc1C(=O)c1cnn(Cc2ccccc2)c1)C(=O)O` (centres unmarked) [D57, 2-[2-(1-Benzyl-1H-pyrazole-4-carbonyl)-4-bromophenoxy]propionic acid] the same measures were under 500 nM and under 500 nM.
Regarding `COc1ccc(Cc2nc(-c3cc(Br)ccc3OCC(=O)O)co2)cc1` [D92, {4-Bromo-2-[2-(4-methoxybenzyl)oxazol-4-yl]phenoxy}acetic acid], the 50% inhibitory concentration (IC50) in assay [1] (setting [5]) and in assay [2] (setting [6]) was under 500 nM in each case.
Turning to `O=C(O)COc1ccc(Br)cc1-c1noc(-c2ccccc2Cl)n1` [D137, {4-Bromo-2-[5-(2-chlorophenyl)-[1,2,4]oxadiazol-3-yl]phenoxy}acetic acid], the IC50 in assay [1] (setting [5]) and in assay [2] (setting [6]) was under 500 nM in each case.
As for `O=C(O)COc1ccc(Br)cc1-c1nc(-c2ccccn2)no1` [D133, [4-Bromo-2-(3-pyridin-[1,2,4]oxadiazol-5-yl)phenoxy]acetic acid], the IC50 in assay [1] (setting [5]) is over 5000 nM; in assay [2] (setting [6]) it was under 500 nM.
The corresponding values for `O=C(c1cnn(-c2ccccc2)c1)c1cc(Br)ccc1OCc1nn[nH]n1` [D4, [5-Bromo-2-(2H-tetrazol-5-ylmethoxy)phenyl](1-phenyl-1H-pyrazol-4-yl)ketone] are over 5000 nM and under 500 nM.
As for `O=C(O)COc1ccc(Br)cc1C(=O)c1cc(-c2ccccc2)no1` [D97, [4-Bromo-2-(3-phenylisoxazole-5-carbonyl)phenoxy]acetic acid], the IC50 in assay [1] (setting [5]) and in assay [2] (setting [6]) was under 500 nM each time.
With `COc1cccc(-c2noc(-c3cc(Br)ccc3OCC(=O)O)n2)c1` [D104, {4-Bromo-2-[3-(3-methoxyphenyl)-[1,2,4]oxadiazol-5-yl]phenoxy}acetic acid], the IC50 in assay [1] (setting [3]) and in assay [2] (setting [4]) was under 500 nM in each case.
On to `Cc1ccc(-n2cc(C(=O)c3cc(Br)ccc3OCC(=O)O)cn2)c(C)c1` [D54, {4-Bromo-2-[1-(2,4-dimethylphenyl)-1H-pyrazole-4-carbonyl]phenoxy}acetic acid], for which the half-maximal inhibitory concentration (IC50) in assay [1] (setting [5]) and in assay [2] (setting [6]) was under 500 nM each time.

In general, IC50 refers to the concentration that gives 50% inhibition.
